Data as given in ChEMBL document CHEMBL3392984, “Two new protein tyrosine phosphatase 1B inhibitors, hyattellactones A and B, from the Indonesian marine sponge Hyattella sp” (Bioorg Med Chem Lett, 2015).
pIC50: −log10 of the molar value. Activity calls are given as the source filed them. The calls are words filed in the database; no cut-off is given here.

Legend:
[1] = biological target: T1, Tyrosine-protein phosphatase non-receptor type 1 (Homo sapiens) (UniProt P18031); assay: Inhibition of PTP1B (unknown origin) at 24.2 uM
T1 sequence (whole entry): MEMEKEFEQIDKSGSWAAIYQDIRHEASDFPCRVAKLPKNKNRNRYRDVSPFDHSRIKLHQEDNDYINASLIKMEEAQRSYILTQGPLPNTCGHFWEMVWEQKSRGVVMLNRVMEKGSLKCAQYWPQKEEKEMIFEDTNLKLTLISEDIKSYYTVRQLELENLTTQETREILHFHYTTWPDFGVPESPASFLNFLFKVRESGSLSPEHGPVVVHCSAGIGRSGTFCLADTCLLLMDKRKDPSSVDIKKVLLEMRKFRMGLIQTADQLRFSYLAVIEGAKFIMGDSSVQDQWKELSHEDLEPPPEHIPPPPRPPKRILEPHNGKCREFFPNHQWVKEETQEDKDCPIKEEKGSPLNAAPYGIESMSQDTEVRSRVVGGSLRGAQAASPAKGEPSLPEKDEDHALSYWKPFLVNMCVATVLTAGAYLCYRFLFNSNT

Jurkat = assay: Cytotoxicity against human Jurkat cells at 24.2 uM; assay type: functional, cell-based
[2] = biological target: T2, Tyrosine-protein phosphatase non-receptor type 1 (Homo sapiens, UniProt P18031); assay: Inhibition of PTP1B (unknown origin)
T2 sequence (P18031 whole entry): T1 sequence (whole entry)

CC[C@@]1(C)CCC[C@]2(C)[C@H]3C[C@@H](O)[C@]4(C)C5=C(CC[C@H]4[C@]3(C)CC[C@@H]12)[C@H](C)OC5=O
inhibition [1]: inactive
inhibition (Jurkat): inactive

CC[C@]12CCCC(C)(C)[C@@H]1CC[C@]1(C)[C@@H]2C[C@@H](O)[C@]2(C)C3=C(CC[C@@H]12)[C@H](C)OC3=O
inhibition [1]: 42%
inhibition (Jurkat): inactive

CC[C@@]1(C)CCC[C@]2(C)[C@H]3C[C@@H](O)[C@]4(C)C5=C(CC[C@H]4[C@]3(C)CC[C@@H]12)[C@@H](C)OC5=O
inhibition [1]: inactive
pIC50 [2]: 5.13
inhibition (Jurkat): inactive

CC[C@]12CCCC(C)(C)[C@@H]1CC[C@]1(C)[C@@H]2C[C@@H](O)[C@]2(C)C3=C(CC[C@@H]12)[C@@H](C)OC3=O
inhibition [1]: 42%
pIC50 [2]: 5.13
inhibition (Jurkat): inactive
